In PubChem BioAssay AID1259408 (Genetic Toxicology Data Bank (GENE-TOX), 2018):
Active and inactive are the calls of the source. The rule behind the calls is not given here.

Test system: GENE-TOX genotoxicity assays, various organisms and cells
Test: GENE-TOX mutagenicity studies
Settings: for call: Assay Type: In vivo carcinogenicity studies
[1] = Species/Cell Type: Mammalian polychromatic erythrocytes, Assay Type: Micronucleus test, chromosome aberrations, Assay Code: MNT+, Evaluation Type: Evaluation B (Post-1980)
[2] = Species/Cell Type: Neurospora crassa, Assay Type: Aneuploidy, chromosome aberrations, Assay Code: NEN-, Evaluation Type: Evaluation A (Pre-1980)
[3] = Species/Cell Type: Salmonella typhimurium (one or more of the five standard strains: TA98, TA100, TA1535, TA1537, and TA1538), Assay Type: Histidine reverse gene mutation, Ames assay, Assay Code: SALT, Evaluation Type: Evaluation A (Pre-1980)
[4] = Species/Cell Type: Drosophila melanogaster, Assay Type: Sex-linked recessive lethal gene mutation, Assay Code: SRLT, Evaluation Type: Evaluation A (Pre-1980)
[5] = Species/Cell Type: Escherichia coli polA (W3119 vs P3478), Assay Type: Rec-assay, DNA effects (bacterial DNA repair), Assay Code: RE1T, Evaluation Type: Evaluation A (Pre-1980)
[6] = Species/Cell Type: Human, Assay Type: Sister-chromatid exchange (SCE) in vitro, Assay Code: SC1+D, Dose Response: With dose response, Evaluation Type: Evaluation A (Pre-1980)
[7] = Species/Cell Type: Salmonella typhimurium (one or more of the five standard strains: TA98, TA100, TA1535, TA1537, and TA1538), Assay Type: Histidine reverse gene mutation, Ames assay, Assay Code: SAL+, Evaluation Type: Evaluation A (Pre-1980)

What does the source list for COc1cc2c(c(OC)c1OC)-c1ccc(OC)c(=O)cc1[C@@H](NC(C)=O)CC2?
mutagenic call (Species/Cell Type: Drosophila melanogaster, Assay Type: Aneuploidy, sex chromosome gain, chromosome aberrations, Assay Code: DAG+F, Evaluation Type: Evaluation A (Pre-1980)): active; positive; mutagenic call (Species/Cell Type: Drosophila melanogaster, Assay Type: Aneuploidy, whole sex chromosome loss, chromosome aberrations, Assay Code: DAC+F, Evaluation Type: Evaluation A (Pre-1980)): active; positive; mutagenic call (Species/Cell Type: Glycine max (soybean), Assay Type: Gene mutation, Assay Code: GLM+, Evaluation Type: Evaluation A (Pre-1980)): active; positive; mutagenic call (Species/Cell Type: Human, Sex: Male, Assay Type: Sperm morphology, Assay Code: SPHT, Evaluation Type: Evaluation A (Pre-1980)): no conclusion; mutagenic call (Species/Cell Type: Mammalian cell culture, nonhuman, Assay Type: Micronucleus test in vitro, chromosome aberrations, Assay Code: MN&+, Evaluation Type: Evaluation A (Pre-1980)): active; positive; mutagenic call [1]: active; positive; mutagenic call (Species/Cell Type: Mammalian polychromatic erythrocytes, Assay Type: Micronucleus test, chromosome aberrations, Assay Code: MNTT, Evaluation Type: Evaluation A (Pre-1980)): no conclusion; mutagenic call (Species/Cell Type: Mouse, Sex: Male, Assay Type: Sperm morphology, Assay Code: SPI+, Evaluation Type: Evaluation A (Pre-1980)): active; positive; mutagenic call [2]: inactive; negative; mutagenic call (Species/Cell Type: Nonhuman, Assay Type: Sister-chromatid exchange (SCE) in vivo, Assay Code: SC3-, Evaluation Type: Evaluation B (Post-1980)): inactive; negative; mutagenic call (Species/Cell Type: Plant, Assay Type: Micronucleus test, chromosome aberrations, Assay Code: MNP+, Evaluation Type: Evaluation A (Pre-1980)): active; positive

Which mutagenic call (Species/Cell Type: Saccharomyces cerevisiae, Assay Type: Reverse gene mutation, Assay Code: YERT, Evaluation Type: Evaluation A (Pre-1980)) does the source give for COc1cc(/C=N/NC(=O)COc2ccc(Br)cc2CN2CCCCC2)ccc1O here?
Its mutagenic call is “no conclusion”.

With Oc1cc2cccc3ccc4c5ccccc5cc1c4c32 as the molecule, how does the mutagenic call (Species/Cell Type: Chinese hamster lung (V79) cells, Assay Type: Forward gene mutation at the HPRT or ouabain locus, Assay Code: V79-, Evaluation Type: Evaluation A (Pre-1980)) read?
Its mutagenic call is “inactive; negative”.

What about the call (Species/Cell Type: Nonhuman, Assay Code: CCGT, Evaluation Type: Evaluation A (Pre-1980)) of the same molecule?
Its call is “no conclusion”.

And the mutagenic call [3]?
The mutagenic call was “no conclusion”.

For CNC=O, which mutagenic call (Species/Cell Type: Escherichia coli WP2, Assay Type: Tryptophan reverse gene mutation, Assay Code: WP2-, Evaluation Type: Evaluation A (Pre-1980)) is on record?
Its mutagenic call is “inactive; negative”.

Which results are given for Clc1ccc(C(c2ccc(Cl)cc2)C(Cl)Cl)cc1?
mutagenic call [4]: no conclusion; mutagenic call [5]: no conclusion; mutagenic call (Species/Cell Type: Nonhuman, Assay Type: Chromosome aberrations in vitro, Assay Code: CY&+, Evaluation Type: Evaluation A (Pre-1980)): active; positive; mutagenic call (Species/Cell Type: Serratia marcesens, Assay Type: Reverse gene mutation, host-mediated assay, Assay Code: HMC+, Evaluation Type: Evaluation A (Pre-1980)): active; positive

What does the source list for CCOC(=O)CC(SP(=S)(OC)OC)C(=O)OCC (stereo unspecified)?
mutagenic call (Species/Cell Type: Bacillus subtilis (H17 vs M45), Assay Type: Rec-assay, spot test, DNA effects (bacterial DNA repair), Assay Code: REWT, Evaluation Type: Evaluation A (Pre-1980)): no conclusion; mutagenic call (Species/Cell Type: Drosophila melanogaster, Assay Type: Sex-linked recessive lethal gene mutation, Assay Code: SRL-, Evaluation Type: Evaluation A (Pre-1980)): inactive; negative; mutagenic call (Species/Cell Type: Escherichia coli WP2 UVRA, Assay Type: Tryptophan reverse gene mutation, Assay Code: WPU-*, Activation: With metabolic activation, Evaluation Type: Evaluation A (Pre-1980)): inactive; negative; mutagenic call [5]: no conclusion; mutagenic call (Species/Cell Type: Hordeum vulgare (barley), Assay Type: Chromosome aberrations, Assay Code: HOC+D, Dose Response: With dose response, Evaluation Type: Evaluation A (Pre-1980)): active; positive; mutagenic call (Species/Cell Type: Human diploid fibroblasts, Assay Type: Unscheduled DNA synthesis (UDS) in vitro, DNA effects, Assay Code: UDH-, Evaluation Type: Evaluation A (Pre-1980)): inactive; negative; mutagenic call [6]: active; positive; mutagenic call (Species/Cell Type: Human, Assay Type: Sister-chromatid exchange (SCE) in vitro, Assay Code: SC1+D, Dose Response: With dose response, Evaluation Type: Evaluation B (Post-1980)): active; positive; mutagenic call [1]: active; positive; call (Species/Cell Type: Nonhuman, Assay Code: CCG-, Evaluation Type: Evaluation A (Pre-1980)): inactive; negative; mutagenic call (Species/Cell Type: Nonhuman, Assay Type: Sister-chromatid exchange (SCE) in vitro, Assay Code: SC2+D, Dose Response: With dose response, Evaluation Type: Evaluation B (Post-1980)): active; positive; mutagenic call (Species/Cell Type: Saccharomyces cerevisiae, Assay Type: Mitotic recombination or gene conversion, Assay Code: YEH-, Evaluation Type: Evaluation A (Pre-1980)): inactive; negative; mutagenic call (Species/Cell Type: Salmonella typhimurium (one or more of the five standard strains: TA98, TA100, TA1535, TA1537, and TA1538), Assay Type: Histidine reverse gene mutation, Ames assay, Assay Code: SAL-, Evaluation Type: Evaluation A (Pre-1980)): inactive; negative

Which call (Species/Cell Type: Nonhuman, Assay Code: CCG+, Evaluation Type: Evaluation A (Pre-1980)) does the source give for Cc1cc(=O)[nH]c(=S)[nH]1 here?
Its call is “active; positive”.

With CCCCc1cc2c(c3ccc4ccccc4c13)CCC2=O as the molecule, how does the mutagenic call [3] read?
Its mutagenic call is “no conclusion”.

Which mutagenic call (Species/Cell Type: Aspergillus nidulans, Assay Type: Aneuploidy, chromosome aberrations, Assay Code: ASN-, Evaluation Type: Evaluation A (Pre-1980)) does the source give for Nc1ccc2nc[nH]c2c1 here?
The mutagenic call was “inactive; negative”.

With Nc1nc(/C=C/c2ccc([N+](=O)[O-])o2)no1 as the molecule, how does the mutagenic call (Species/Cell Type: Fischer rat embryo (RLV/1706) cells, Assay Type: Cell transformation, viral enhanced, Assay Code: CTR+, Evaluation Type: Evaluation A (Pre-1980)) read?
Its mutagenic call is “active; positive”.

What about the mutagenic call (Species/Cell Type: Neurospora crassa, Assay Type: Forward gene mutation, Assay Code: NEF+, Evaluation Type: Evaluation A (Pre-1980)) of the same molecule?
The mutagenic call was “active; positive”.

And the mutagenic call (Species/Cell Type: Neurospora crassa, Assay Type: Reverse gene mutation, Assay Code: NER+, Evaluation Type: Evaluation A (Pre-1980))?
The mutagenic call was “active; positive”.

What about the mutagenic call (Species/Cell Type: Saccharomyces cerevisiae, Assay Type: Mitotic recombination or gene conversion, Assay Code: YEC+, Evaluation Type: Evaluation A (Pre-1980)) of the same molecule?
The mutagenic call was “active; positive”.

What about the mutagenic call (Species/Cell Type: Saccharomyces cerevisiae, Assay Type: Mitotic recombination or gene conversion, Assay Code: YEH+, Evaluation Type: Evaluation A (Pre-1980)) of the same molecule?
Its mutagenic call is “active; positive”.

And the mutagenic call (Species/Cell Type: Saccharomyces cerevisiae, Assay Type: Reverse gene mutation, Assay Code: YER+, Evaluation Type: Evaluation A (Pre-1980))?
The mutagenic call was “active; positive”.

For CCCCCCCCCCCCCCCC(=O)OC/C=C(C)/C=C/C=C(C)/C=C/C1=C(C)CCCC1(C)C, which mutagenic call [6] is on record?
The mutagenic call was “active; positive”.

For Cc1c2ccccc2c(C)c2c1ccc1cccc(F)c12, which mutagenic call (Species/Cell Type: Chinese hamster lung (V79) cells, Assay Type: Forward gene mutation at the HPRT or ouabain locus, Assay Code: V79-*, Activation: With metabolic activation, Evaluation Type: Evaluation A (Pre-1980)) is on record?
Its mutagenic call is “inactive; negative”.

How did the mutagenic call (Species/Cell Type: Mammalian polychromatic erythrocytes, Assay Type: Micronucleus test, chromosome aberrations, Assay Code: MNTT, Evaluation Type: Evaluation B (Post-1980)) turn out when Cn1cc[nH]c1=S was run?
Its mutagenic call is “no conclusion”.

How did the mutagenic call [7] turn out when CCN(CC)CCNc1ccc(COC(=O)c2ccco2)c2sc3ccccc3c(=O)c12 was run?
Its mutagenic call is “active; positive”.

Which mutagenic call [2] does the source give for O=C1NC(=O)C(=O)C(=O)N1 here?
Its mutagenic call is “inactive; negative”.

Cc1c2ccccc2c(C(=O)O)c2ccc3ccccc3c12 was tested. Which mutagenic call [4] did it give?
The mutagenic call was “no conclusion”.

With Cl[Te](Cl)(Cl)Cl as the molecule, how does the mutagenic call (Species/Cell Type: Bacillus subtilis (H17 vs M45), Assay Type: Rec-assay, spot test, DNA effects (bacterial DNA repair), Assay Code: REW+, Evaluation Type: Evaluation A (Pre-1980)) read?
The mutagenic call was “active; positive”.

CC(=O)Nc1ccc(CC(=O)c2ccccc2)cc1 was tested. Which mutagenic call [3] did it give?
The mutagenic call was “no conclusion”.

O=C1CN=C(c2ccccc2)c2cc([N+](=O)[O-])ccc2N1 was tested. Which mutagenic call (Species/Cell Type: Aspergillus nidulans, Assay Type: Forward gene mutation, Assay Code: ASF+, Evaluation Type: Evaluation A (Pre-1980)) did it give?
Its mutagenic call is “active; positive”.

Which mutagenic call [7] does the source give for CS(C)=O.CS(C)=O.CS(C)=O.CS(C)=O.[Cl][Ru][Cl] here?
The mutagenic call was “active; positive”.

Which mutagenic call (Species/Cell Type: Bacillus subtilis (H17 vs M45T), Assay Type: Rec-assay, spot test, DNA effects (bacterial DNA repair), Assay Code: REXT, Evaluation Type: Evaluation A (Pre-1980)) does the source give for CCC[C@@H]1C[C@@H](C(=O)N[C@@H]([C@H]2O[C@H](SC)[C@H](O)[C@@H](O)[C@H]2O)[C@@H](C)O)N(C)C1 here?
Its mutagenic call is “no conclusion”.

With CCc1cccc(C)c1N(C(=O)CCl)C(C)COC (stereo unspecified) as the molecule, how does the mutagenic call (Species/Cell Type: Zea mays (corn), Assay Type: Gene mutation, Assay Code: ZEM-, Evaluation Type: Evaluation A (Pre-1980)) read?
Its mutagenic call is “inactive; negative”.

For O=C1CCC(N2C(=O)c3ccccc3C2=O)C(=O)N1 (stereo unspecified), which mutagenic call (Species/Cell Type: Allium cepa, Assay Type: Chromosome aberrations, Assay Code: ALC+, Evaluation Type: Evaluation A (Pre-1980)) is on record?
The mutagenic call was “active; positive”.

And the mutagenic call (Species/Cell Type: Drosophila melanogaster, Assay Type: Aneuploidy, partial sex chromosome loss, chromosome aberrations, Assay Code: DAP-M, Evaluation Type: Evaluation A (Pre-1980))?
The mutagenic call was “inactive; negative”.

And the mutagenic call (Species/Cell Type: Drosophila melanogaster, Assay Type: Aneuploidy, sex chromosome gain, chromosome aberrations, Assay Code: DAG-M, Evaluation Type: Evaluation A (Pre-1980))?
Its mutagenic call is “inactive; negative”.

And the mutagenic call (Species/Cell Type: Drosophila melanogaster, Assay Type: Aneuploidy, whole sex chromosome loss, chromosome aberrations, Assay Code: DAC-M, Evaluation Type: Evaluation A (Pre-1980))?
The mutagenic call was “inactive; negative”.

What about the mutagenic call (Species/Cell Type: Mouse, Sex: Male, Assay Type: Sperm morphology, Assay Code: SPI-, Evaluation Type: Evaluation A (Pre-1980)) of the same molecule?
Its mutagenic call is “inactive; negative”.

What about the mutagenic call (Species/Cell Type: Salmonella typhimurium, Assay Type: Forward and reverse gene mutation, host-mediated assay, Assay Code: HMA-, Evaluation Type: Evaluation A (Pre-1980)) of the same molecule?
The mutagenic call was “inactive; negative”.

What about the mutagenic call (Species/Cell Type: Vicia faba, Assay Type: Chromosome aberrations, Assay Code: VIC+, Evaluation Type: Evaluation A (Pre-1980)) of the same molecule?
Its mutagenic call is “active; positive”.
